Holding throughout (assay type): in vivo
The subject of assay [1] is Alopecurus myosuroides (ALOMY). The assay can be described thus: Pre-emergence biological efficacy, glasshouse, 1000 g/ha, evaluated after 13 days (100=total damage to plant; 0=no damage to plant). As to conditions: Alopecurus myosuroides, 312 h, rate 1,000 g/ha, read-out: Percentage damage caused to weed species, pre-emergence, ALOMY. The protocol:
(§1) Seeds of Alopecurus myosuroides (ALOMY), Setaria faberi (SETFA), Echinochloa crus-galli (ECHCG), Solanum nigrum (SOLNI), Amaranthus retroflexus (AMARE) and Ipomoea hederaceae (IPOHE) were sown in standard soil in pots. […] The test plants were then grown under controlled conditions in the glasshouse (at 24/16° C., day/night; 14 hours light; 65% humidity) and watered twice daily. […]

Assay [2] deals with Amaranthus retroflexus (AMARE). Described as above. The settings on record: Amaranthus retroflexus, 312 h, rate 1,000 g/ha, read-out: Percentage damage caused to weed species, pre-emergence, AMARE. The protocol:
as §1

Assay [3] deals with Echinochloa crus-galli (ECHCG). The description is as above. The settings on record: Echinochloa crus-galli, 312 h, rate 1,000 g/ha, read-out: Percentage damage caused to weed species, pre-emergence, ECHCG. Here is the method:
as §1

Assay [4] concerns Ipomoea hederaceae (IPOHE). The assay is described as above. As to conditions: Ipomoea, 312 h, rate 1,000 g/ha, read-out: Percentage damage caused to weed species, pre-emergence, IPOHE. Here is the method: as §1
The subject of assay [5] is Setaria faberi (SETFA). The description is as above. As to conditions: Setaria faberi, 312 h, rate 1,000 g/ha, read-out: Percentage damage caused to weed species, pre-emergence, SETFA. Here is the method: as §1
Assay [6] has as its system Solanum nigrum (SOLNI). Described as above. As to conditions: Solanum nigrum, 312 h, rate 1,000 g/ha, read-out: Percentage damage caused to weed species, pre-emergence, SOLNI. Here is the method: as §1
The test system of assay [7] is Alopecurus myosuroides (ALOMY). In words: Post-emergence biological efficacy, glasshouse, 500 or 1000 g/ha, evaluated after 13 days (100=total damage to plant; 0=no damage to plant). The settings on record: Alopecurus myosuroides, 312 h, rate 1,000 g/ha, read-out: Percentage damage caused to weed species, post-emergence, ALOMY. Here is the method:
(§2) Seeds of Alopecurus myosuroides (ALOMY), Setaria faberi (SETFA), Echinochloa […]), Solanum nigrum (SOLNI), Amaranthus retroflexus (AMARE) and Ipomoea hederaceae (IPOHE) were sown in standard soil in pots. […] The test plants were then grown on under controlled conditions in a glasshouse (at 24/16° C., day/night; 14 hours light; 65% humidity) and watered twice daily. […]

For assay [8], the system named is Amaranthus retroflexus (AMARE). Described as above. As to conditions: Amaranthus retroflexus, 312 h, rate 1,000 g/ha, read-out: Percentage damage caused to weed species, post-emergence, AMARE. Here is the method: as §2
In assay [9] the test system is Echinochloa crusgaffi (ECHCG). The description is as above. The settings on record: Echinochloa, 312 h, rate 1,000 g/ha, read-out: Percentage damage caused to weed species, post-emergence, ECHCG. Here is the method: as §2
In assay [10] the test system is Ipomoea hederaceae (IPOHE). The assay is described as above. The settings on record: Ipomoea, 312 h, rate 1,000 g/ha, read-out: Percentage damage caused to weed species, post-emergence, IPOHE. The protocol: as §2
In assay [11] the test system is Setaria faberi (SETFA). Described as above. The settings on record: Setaria faberi, 312 h, rate 1,000 g/ha, read-out: Percentage damage caused to weed species, post-emergence, SETFA. Here is the method: as §2
Assay [12] concerns Solanum nigrum (SOLNI). The description is as above. As to conditions: Solanum nigrum, 312 h, rate 1,000 g/ha, read-out: Percentage damage caused to weed species, post-emergence, SOLNI. The protocol:
as §2

As for `Cc1c[nH]c2nc(C3CC3)nc(C(=O)O)c12` [Compound 1-3, 4-Carboxy-2-cyclopropyl-5-methyl-7H-pyrrolo[2,3-d]pyrimidine], the pest or weed control at 1000 g/ha is 0% in assay [1]; 50% in assay [2]; 0% in [3]; 100% in [4]; 10% in assay [5]; 20% in assay [6]. The pest or weed control at 1000 g/ha in assay [7] was 0%; in assay [8] it was 100%; in assay [9], 0%; in assay [10], 50%; in assay [11] it was 0%; in [12], 80%.
In the case of `COc1c(Cl)ccc(-c2nc(C(=O)O)c3cc[nH]c3n2)c1F` [Compound 1-61, 4-Carboxy-2-(4-chloro-2-fluoro-3-methoxyphenyl)-7H-pyrrolo[2,3-d]pyrimidine], the pest or weed control at 1000 g/ha in assay [1] came out at 0%; in [3], 0%; in assay [4], 0%; in [5], 0%; in assay [7], 10%; in assay [8] it was 100%. For the same compound, the pest or weed control at 1000 g/ha in assay [9] is 20%; in assay [10], 70%; in assay [11], 40%; in assay [12], 70%.
In the case of `COc1c(Cl)ccc(-c2nc(C(=O)OCc3ccccc3)c3c(C)c[nH]c3n2)c1F` [Compound 1-86, 4-Benzyloxycarbonyl-2-(4-chloro-2-fluoro-3-methoxyphenyl)-5-methyl-7H-pyrrolo[2,3-d]pyrimidine], the pest or weed control at 1000 g/ha turned out to be 0% in assay [1]; 0% in assay [3]; 0% in assay [4]; 0% in [5]; 10% in assay [6]; 0% in assay [7]. The pest or weed control at 1000 g/ha in assay [8] turned out to be 40%; in [9], 0%; in [10] it was 30%; in assay [11], 10%; in [12], 60%.
For `Cc1cc2c(C(=O)O)nc(-c3ccc(Cl)c(F)c3)nc2n1Cc1ccccc1[N+](=O)[O-]` [Compound 8-21, 4-Carboxy-2-(4-chloro-3-fluorophenyl)-6-methyl-7-(2-nitrophenyl-methyl)-7H-pyrrolo[2,3-d]pyrimidine], the pest or weed control at 1000 g/ha in assay [1] was 0%; in assay [3] it was 0%; in assay [4] it was 0%; in assay [5], 20%; in assay [6], 0%; in [7], 10%. Besides, the pest or weed control at 1000 g/ha in assay [8] was 0%; in assay [9], 0%; in assay [10], 10%; in assay [11], 0%; in [12], 20%.
Consider `COC(=O)c1nc(-c2ccc(Cl)c(OC)c2F)cc2c1c(C)cn2C(C)=O` [Compound 36-64, 6-(4-Chloro-2-fluoro-3-methoxyphenyl)-4-methoxycarbonyl-3-methyl-1-methylcarbonyl-1H-pyrrolo[3,2-c]pyridine], for which the pest or weed control at 1000 g/ha in [1] is 0%; in assay [3], 0%; in assay [4], 20%; in [5], 0%; in assay [6], 50%; in [7], 0%. For the same compound, the pest or weed control at 1000 g/ha in assay [8] was determined as 70%; in assay [9] it was 0%; in [10], 70%; in [11], 10%; in assay [12], 80%.

For the origin of these results see patent US20120202690A1, “HERBICIDAL COMPOUNDS” (SYNGENTA LIMITED, priority 2009, published 2012).
